# Experimental data published in patent US4178456A, “Prostenoic acids and esters” (American Cyanamid Company, priority 1977, dated 1979).
# Key:
# [1] = test system: adenosine diphosphate induced platelet aggregation; assay: Inhibition of Platelet Aggregation-In Vitro, adenosine diphosphate induced; type: cell-based, human; set-up: key: (-): Inhibition; (+): No Inhibition
# Text: (§1) It is well known that platelet aggregation inhibitors may be useful as anti-thrombotic drugs. Inhibition of platelet aggregation can be conveniently measured in vitro by monitoring changes in optical density and/or light transmission in platelet rich plasma upon addition of suitable aggregating agents such as adenosine diphosphate, epinephrine, thrombin or collagen. Alternatively, platelet aggregation can be measured in vitro using platelet rich plasma obtained at various time intervales from animals given inhibitors by an oral or parenteral route.
# (§2) Human […] is incubated with modified Tyrode's solution in a proportion of 40-50% human […]. The test compounds are added at varying concentrations and after 5 minutes incubation, an aggregating agent such as adenosine diphosphate or collagen is added. The change in optical density (light transmission) is monitored by eye and inhibition is recorded as a (-) or lack of inhibition is recorded as a (+). Test compounds are considered active if they inhibit adenosine diphosphate or collagen induced aggregation at a concentration of 25 mcg/ml or less within 5-10 minutes.
# [2] = test system: collagen induced platelet aggregation; assay: Inhibition of Platelet Aggregation-In Vitro, collagen induced; type: cell-based, human; set-up: key: (-): Inhibition; (+): No Inhibition
# Text: as §1, §2
# [3] = test system: mean arterial blood pressure; assay: Hypotensive Activity in anesthetized rats; type: in vivo, Male Wistar strain rats; conditions: dose 2.1 mg/kg, intravenous (jugular) infusion over one minute, 4 animals, urethane anesthesia
# Protocol: This procedure is a modification of the technique described by Pike, et al., Prostaglandins, Nobel Symposium 2, Stockholm, June, 1966, pg. 165.
# Male Wistar strain rats (Royal Hart Farms) averaging approximately 250 g in weight are fastened to rat boards in a supine position by means of canvas vests and limb ties. The animals are anesthetized with a 900 mg/kg intraperitoneal dose of urethane. The left carotid artery is cannulated with polyethylene 50 tubing to measure arterial blood pressure and the left external jugular vein is cannulated with polyethylene 50 tubing for drug infusion. The animals are allowed to equilibrate for 15-30 minutes. The test compound is infused in 0.5 ml of saline, over a one minute period, at the indicated dose level, using a Harvard model 940 infusion pump and a 6 cc syringe at speed 5. Each drug dose is flushed with 0.4 ml of saline. The mean arterial blood pressure is measured before and after drug administration using a Statham model P23Db pressure transducer and a Brush model 260 recorder. The percent depression in mean arterial blood pressure and the duration of at least a 10% depression induced by representative compounds of this invention are recorded in Table C.
# [4] = test system: bronchospasms elicited by 5-hydroxytryptamine; assay: Bronchodilator Activity (Konzett procedure), 5-hydroxytryptamine; type: in vivo, guinea pigs; conditions: Cavia porcellus; three logarithmic cumulative intravenous doses
# Protocol: (§3) Bronchodilator activity is determined in guinea pigs against bronchospasms elicited by intravenous injections of 5-hydroxytryptamine, histamine or acetylcholine by the Konzett procedure. [See J. Lulling, P. Lievens, F. El Sayed and J. Prignot, Arzeneimittel-Forschung, 18, 995 (1968).] In Table D, bronchodilator activity for representative compounds of this invention against one or more of the three spasmogenic agents is expressed as an ED50 determined from the results obtained with three logarithmic cumulative intravenous doses.
# [5] = test system: bronchospasms elicited by histamine; assay: Bronchodilator Activity (Konzett procedure), histamine; type: in vivo, guinea pigs; conditions: Cavia porcellus; three logarithmic cumulative intravenous doses
# Protocol: as §3
# [6] = test system: bronchospasms elicited by acetylcholine; assay: Bronchodilator Activity (Konzett procedure), acetylcholine; type: in vivo, guinea pigs; conditions: Cavia porcellus; three logarithmic cumulative intravenous doses
# Protocol: as §3
Structure (SMILES),"Inhibition of Platelet Aggregation, Adenosine Diphosphate ([1]; drug concentration 25 ug/ml)","Inhibition of Platelet Aggregation, Adenosine Diphosphate ([1]; drug concentration 250 ug/ml)","Inhibition of Platelet Aggregation, Collagen ([2]; drug concentration 0.25 ug/ml)","Inhibition of Platelet Aggregation, Collagen ([2]; drug concentration 2.5 ug/ml)","Inhibition of Platelet Aggregation, Collagen ([2]; drug concentration 25 ug/ml)","Inhibition of Platelet Aggregation, Collagen ([2]; drug concentration 250 ug/ml)",Duration in Minutes of at Least 10% Depression [3] [min],Percent Depression of Mean Arterial Blood Pressure [3] [%],ED50 [4] [µg/kg],ED50 [5] [µg/kg],ED50 [6] [µg/kg],"Inhibition of Platelet Aggregation, Adenosine Diphosphate ([1]; drug concentration 0.25 ug/ml)","Inhibition of Platelet Aggregation, Adenosine Diphosphate ([1]; drug concentration 2.5 ug/ml)"
"O=C(O)CCCC=CCC1C(O)CC(=O)C1C=CC1(O)CCCCC1 (stereo not drawn) [nat(and ent)-9α,15-Dihydroxy-11-oxo-15,16-tetramethylene-17,18,19,20-tetranor-5-cis-13-trans-prostadienoic Acid]",(-),(-),(+),(-),(-),(-),> 20,-29,0.253,> 3.2,> 3.2,–,–
"O=C(O)CCC/C=C\C[C@@H]1[C@@H](/C=C/C2(O)CCCCC2)[C@H](O)C[C@@H]1O (relative stereo) [nat(and ent)-9α,11α,15-Trihydroxy-15,16-tetramethylene-17,18,19,20-tetranor-13-trans-5-cis-prostadienoic Acid]",(+),(-),(+),(+),(-),(-),–,–,–,–,–,(+),(+)
